Data on 29 molecules can be found in PubChem BioAssay (NCI).

Several values for one entry are separate records, joined by “and”; a condition that tells them apart may be missing. Equal entries are not always repeated.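 Five concentrations, 48 hours, 96-well plates. GI50 = concentration required for 50% inhibition of growth. TGI marks complete inhibition of growth.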

Holding throughout (assay): inhibition of tumour cell growth, NCI panel, 48 h
In experiment [1] the test system is NCI-H23 lung.
Experiment [2] deals with MALME-3M melanoma.
In experiment [3] the test system is SK-MEL-2 melanoma.
Experiment [4] deals with OVCAR-4 ovarian.
Experiment [5] concerns RPMI-8226 leukemia.
The subject of experiment [6] is KM12 colon.
The subject of experiment [7] is HOP-92 NSCLC.
The subject of experiment [8] is OVCAR-5 ovarian.
For experiment [9], the system named is ACHN renal.

For the molecule `O=C1CC2=CCCC2O1` (centres undefined), the TGI in experiment [1], in experiment [2], in experiment [3], in [4], in [5] and in experiment [6] was above 100 µM each time. The same molecule showed a TGI in experiment [7] above 100 µM.

In the case of `CC(=O)CC(=O)Nc1ccc(OS(N)(=O)=O)cc1`, the TGI in experiment [8], in experiment [1], in experiment [2], in [3], in experiment [4] and in experiment [5] was above 100 µM throughout. The TGI in experiment [6], in experiment [9] and in [7] was above 100 µM in each case.

`CCOC(=O)N1C/C(=C\c2ccc(N(C)C)cc2)C(=O)/C(=C/c2ccc(N(C)C)cc2)C1`: the TGI in experiment [8], in experiment [1], in experiment [2], in experiment [3], in [4] and in experiment [5] was above 100 µM throughout. For the same molecule, the TGI in experiment [6], in experiment [9] and in experiment [7] was above 100 µM each time.

Take `CC[P+](C)(C)CC`: the TGI in experiment [8], in experiment [1], in experiment [2], in experiment [3], in experiment [4] and in experiment [5] was above 100 µM in each case. In addition, the TGI in experiment [6], in experiment [9] and in [7] was above 100 µM throughout.

As for `CC(C)CC1CC2C(=O)N(c3ccccc3)C(=O)C2c2[nH]c3ccccc3c21` (centres undefined), the TGI in experiment [8] was above 100 µM; in [1], above 80.8 µM; in experiment [2], 37 µM; in experiment [3], 59.8 µM; in experiment [4], above 38.5 µM; in experiment [5], above 100 µM. Also, the TGI in [6] is above 100 µM; in [9], above 87.7 µM; in experiment [7] it was 41.8 µM.

Turning to `COc1ccc(C2=NC(CO)[C@H](c3ccccc3)O2)cc1OC` (some centres undefined), the TGI in [8], in [2], in [3], in experiment [4], in [6] and in experiment [9] was above 100 µM in each case. This molecule also returned a TGI in experiment [7] above 100 µM.

For `Cc1c(C(=O)Nc2ccc(Oc3ccnc4cc(OCC(C)(C)O)ccc34)c(F)c2)c(=O)n(-c2ccccc2)n1C`, the results for the GI50 in experiment [6] and in [7] were 0.226 µM and 1.88 µM, respectively. For the same molecule, the TGI in [6] was above 100 µM; in experiment [7], 22.2 µM.

Turning to `NC(=O)c1c(-c2ccccc2)c(-c2ccccc2)cc2c(=O)c3ccccc3[nH]c12`, the TGI in experiment [8] was above 100 µM; in [1], 43.5 µM; in [2] it was 37.1 µM; in [3], 45.1 µM; in experiment [4], 30.4 µM; in experiment [5], above 100 µM. Also, the TGI in [6] stood at 78.6 µM; in experiment [9], 37.7 µM; in experiment [7], 55.5 µM.

`O=C(OCc1ccccc1)N1N=NC2C3CC(OCc4ccccc4)(OCc4ccccc4)C(O3)C21` (centres undefined): the TGI in [8] is 70.4 µM; in experiment [1], 38.9 µM; in experiment [2], 43.1 µM; in experiment [3] it was 33 µM; in [4], above 100 µM; in experiment [5] it was above 100 µM. The TGI is above 100 µM in [6], above 100 µM in experiment [9] and 43.9 µM in experiment [7].

Regarding `CCCOC(=O)C1C(c2ccc(OC)cc2)NC(c2ccc(OC)cc2)C(C(=O)OCCC)S1(=O)=O` (centres undefined), the GI50 in experiment [8], in experiment [1], in experiment [2], in [3], in experiment [4] and in [5] was above 100 µM in each case. Also, the GI50 in [6] and in [9] was above 100 µM throughout. For the same molecule, the TGI in experiment [8], in experiment [1], in experiment [2], in [3], in [4] and in experiment [5] was above 100 µM in each case. The TGI in experiment [6] and in experiment [9] was above 100 µM throughout.

As for `COc1ccc(C)cc1-c1ccc(-c2cc(C)ccc2OC)o1`, the TGI in [8], in [1], in experiment [2], in experiment [3], in [4] and in experiment [5] was above 100 µM throughout. The TGI in experiment [6], in experiment [9] and in experiment [7] was above 100 µM in each case.

As to `C=CCN=C1NC(=O)C(CC(=O)Nc2ccc([N+](=O)[O-])cc2[N+](=O)[O-])S1` (centres undefined), the TGI in [8], in experiment [1], in [2], in experiment [3], in [4] and in [6] was above 100 µM throughout. Besides, the TGI in experiment [9] and in experiment [7] was above 100 µM throughout.

Consider `NNC(=O)C(=O)N/N=C1\CCCC1C(=O)CCC(=O)Nc1cccc(Cl)c1` (centres undefined), for which the TGI in [8], in [1], in experiment [2], in experiment [3], in experiment [4] and in experiment [5] was above 100 µM throughout. Moreover, the TGI in experiment [6], in [9] and in [7] was above 100 µM in each case.

`Oc1ccc(Br)cc1C=Nc1ccc(Oc2ccc(N=Cc3cc(Br)ccc3O)cc2)cc1`: the TGI in [8], in experiment [1], in experiment [2], in experiment [3], in [4] and in experiment [5] was above 19.6 µM each time. In addition, the TGI in [6], in [9] and in experiment [7] was above 19.6 µM in each case.

For `O=S(=O)(c1ccccc1)C1(C2(S(=O)(=O)c3ccccc3)CCN=N2)CCN=N1` (centres undefined), the TGI in experiment [8], in [1], in experiment [2], in experiment [3], in experiment [4] and in [5] was above 100 µM in each case. Also, the TGI in [6] and in experiment [9] was above 100 µM throughout.

`O=[N+]([O-])C(=C1c2ccccc2-c2ccccc21)[N+](=O)[O-]`: the TGI was above 100 µM in experiment [8]; above 10 µM in experiment [1]; above 100 µM in [3]; above 100 µM in experiment [4]; above 100 µM in [5]; above 100 µM in experiment [6]. Further, the TGI in [9] was above 100 µM.

Take `CC[C@@]1(O)C(=O)OCc2c1cc1n(c2=O)Cc2cc3c(N)c(OC)ccc3nc2-1`: the GI50 is 0.0543 µM in experiment [8]; 0.0213 µM in experiment [1]; 0.236 µM in experiment [2]; 0.439 µM in experiment [3]; 0.229 µM in experiment [4]; 0.135 µM in [5]. The GI50 in experiment [6] is 0.292 µM; in experiment [9], 0.0255 µM; in experiment [7] it was 0.185 µM. For the same molecule, the TGI in experiment [8] came to 0.842 µM; in [1], 0.142 µM; in experiment [2] it was 4.05 µM; in experiment [3] it was 1.47 µM; in [4], 1.36 µM; in experiment [5] it was 2.32 µM. Besides, the figures for the TGI in [6], in experiment [9] and in experiment [7] were 2.24 µM, 0.0767 µM and 1.85 µM, respectively.

As to `Cc1ccc(C)c(NC(=O)C(=O)C(C2C(C)CC(=O)C2CC(=O)O)[N+](=O)[O-])c1` (centres undefined), the TGI in experiment [8], in experiment [1], in experiment [2], in experiment [3], in experiment [4] and in experiment [5] was above 100 µM throughout. For the same molecule, the TGI in experiment [6], in experiment [9] and in experiment [7] was above 100 µM each time.

As for `O=S(=O)([O-])c1ccc(C=Nc2ccccc2)c([O-])c1.O=S(=O)([O-])c1ccc(C=Nc2ccccc2)c([O-])c1.[Co+2]`, the GI50 is 16.1 µM in experiment [8]; above 100 µM in experiment [1]; 99.1 µM in experiment [2]; 77.8 µM in experiment [3]; above 100 µM in experiment [5]; 65.4 µM in experiment [6]. For the same molecule, the values for the GI50 in experiment [9] and in experiment [7] were 48.1 µM and above 100 µM, respectively. In addition, the TGI in experiment [8], in experiment [1], in experiment [2], in experiment [3], in experiment [5] and in experiment [6] was above 100 µM throughout. Moreover, the TGI in experiment [9] and in experiment [7] was above 100 µM throughout.

With `CCCCCCCCCCCCNC(=S)OCCCC`, the TGI in [8] is above 100 µM; in experiment [1], above 100 µM; in [2], above 100 µM; in [3] it was 62.2 µM; in experiment [4], above 100 µM; in experiment [5], 51 µM. The TGI in experiment [6], in [9] and in experiment [7] was above 100 µM in each case.

Regarding `O=C1c2ccccc2C(=O)N1CCN(CCN1C(=O)c2ccccc2C1=O)Cc1ccccc1`, the TGI in [1], in experiment [3], in experiment [4], in [5], in experiment [6] and in [9] was above 100 µM throughout. The molecule also yielded a TGI in experiment [7] above 100 µM.

As to `CCOC(=O)C(c1ccsc1)P(=O)(OCC)OCC` (centres undefined), the TGI in experiment [8] was 37.7 µM; in experiment [1], 36.7 µM; in experiment [2] it was 60.8 µM; in [3] it was 39.9 µM; in experiment [4], above 100 µM; in [5] it was above 100 µM. Further, the TGI in experiment [6] was determined as 28.4 µM; in experiment [9], 53 µM; in [7] it was 46.4 µM.

For the molecule `NNC(=S)N/N=C(\c1nc2ccc(Cl)cc2[nH]c1=O)C(O)c1cccc([N+](=O)[O-])c1` (centres undefined), the TGI in [8] was above 100 µM; in experiment [1], above 61.9 µM; in [2], above 100 µM; in experiment [3], above 100 µM; in experiment [4] it was above 100 µM; in [5], above 63.7 µM. Also, the TGI in experiment [6], in [9] and in experiment [7] was above 100 µM each time.

In the case of `COC(=O)N1C=CC2=C(C)C3Nc4ccccc4C3C(C)=C2C1` (centres undefined), the TGI is above 100 µM in experiment [8]; above 100 µM in experiment [1]; 13.1 µM in experiment [2]; 2.95 µM in experiment [3]; 11.3 µM in [4]; 5.87 µM in experiment [5]. Also, the results for the TGI in experiment [9] and in experiment [7] were 5.01 µM and 10.1 µM, respectively.

`COc1ccc(-c2cc(-c3ccco3)c(C#N)c(=O)n2C2OC(COC(C)=O)C(OC(C)=O)C(OC(C)=O)C2OC(C)=O)cc1` (centres undefined): the TGI in experiment [8] is above 100 µM; in experiment [1], above 100 µM; in [2], above 100 µM; in experiment [3], > 100 µM and 50.8 µM; in experiment [4] it was above 100 µM; in experiment [5], above 100 µM. Further, the TGI in [6] was above 100 µM; in [9], above 100 µM; in experiment [7], > 100 µM and 62.7 µM. The GI50 in [2] is > 100 µM and 25 µM; in [3] it was > 100 µM and 14.5 µM; in experiment [9], > 100 µM and 31.1 µM.

Regarding `Cc1ccccc1-c1cc(=O)c2cc(C)c(C)c(C(=O)O)c2o1`, the TGI in experiment [8], in [1], in experiment [2], in [3], in experiment [4] and in experiment [5] was above 100 µM in each case. Also, the TGI in experiment [6], in experiment [9] and in experiment [7] was above 100 µM in each case.

Regarding `CC1Nc2ccccc2NC1C=C(C#N)C#N` (centres undefined), the TGI in experiment [8] was 33.4 µM; in [1], 34.6 µM; in experiment [2] it was 32.3 µM; in [3], 37.7 µM; in [4], 31.6 µM; in experiment [5], 29.2 µM. The TGI worked out at 31.9 µM in experiment [6], 32.7 µM in experiment [9] and 28.4 µM in experiment [7].

`CC1(C)CCOC(Sc2ccccc2)C1` (centres undefined): the TGI was above 100 µM in [1]; 69.9 µM in experiment [3]; above 100 µM in experiment [4]; 91.3 µM in experiment [5]; above 100 µM in experiment [6]; above 100 µM in experiment [9].

Consider `O=C1C=C(c2ccccc2)NC1(c1ccccc1)c1cc(-c2ccccc2)[nH]c1-c1ccccc1` (centres undefined), for which the TGI in [1], in [3], in experiment [4], in [6] and in experiment [9] was above 100 µM in each case.
